Earlier results in US20050148593A1, “Compounds, compositions, and methods” (priority 2003, published 2005).

System: A549 cells
Conditions: data provided by National Cancer Institute, Developmental Therapeutic Program

| Structure (SMILES) | GI50 |
| --- | --- |
| O=c1[nH]cc(F)c(=O)[nH]1 [5-fluorouracil] | 1 µM |
| COc1cccc2c1C(=O)c1c(O)c3c(c(O)c1C2=O)C[C@@](O)(C(=O)CO)C[C@@H]3O[C@H]1C[C@H](N)[C@H](O)[C@H](C)O1 [doxorubicin] | 0.063 µM |
| NC(=O)NO [hydroxyurea] | 500 µM |
| CC(=O)O[C@H]1C(=O)[C@@]2(C)[C@H]([C@H](OC(=O)c3ccccc3)[C@]3(O)C[C@H](OC(=O)[C@H](O)[C@@H](NC(=O)c4ccccc4)c4ccccc4)C(C)=C1C3(C)C)[C@]1(OC(C)=O)CO[C@@H]1C[C@@H]2O [paclitaxel] | 0.004 µM |
